# Test results published in patent publication US7732609B2, “5-(arylsulfonyl)-pyrazolopiperidines” (Elan Pharmaceuticals, Inc., priority 2005, dated 2010).
# Target: T1, gamma-secretase (Homo sapiens, UniProt P49768)
# T1 construct: The assay used a partially purified extract of IMR-32 cell membranes as the gamma-secretase enzyme preparation; endogenous in cells; host or cells: IMR-32 cell membranes (partially purified extract)
# Assay: Gamma-secretase APP enzyme assay (MBP-C125 Swe cleavage at Aβ40 site, sandwich ELISA)
# Assay type: biochemical
# Details: IMR-32 cell membrane extract as enzyme; MBP-C125swe substrate; 2 h at 37° C; read-out: γAPP
# Excerpt: The gamma-secretase APP enzyme assay was designed to measure the specific proteolytic cleavage of an APP substrate (MBP-C125 Swe fusion protein) at the Aβ40 site. The assay used a partially purified extract of IMR-32 cell membranes as the gamma-secretase enzyme preparation and a recombinant fusion protein containing the C-terminal 125 amino acids of the Swedish variant of the APP (MBP-C125swe) as the substrate. This assay involved two steps beginning with the enzymatic reaction generating a cleavage product that was captured with an immobilized antibody specific for the neo-epitope Aβ40 site. The captured cleavage product was then detected in a sandwich ELISA assay with a biotinylated reporter antibody that is specific to Aβ (17-28). Streptavidin-linked alkaline phosphatase was then added that would generate a fluorescent signal proportional to the amount of cleavage product. This assay was used to discover small molecule inhibitors of gamma-secretase.
# Briefly, a 149 mg/ml solution of BIGCHAP detergent was made with water at 42° C. and then rotated for 30 minutes at the same temperature. This warmed solution of BigCHAPS(N,N-Bis(3-D-gluconamidopropyl)cholamide) detergent was used to dissolve Brain Extract Type-V (lipid containing a minimum of 40% phosphatidylethanolamine) from Sigma (St. Louis, Mo.) to a concentration of 8 mg/ml. This solution containing BigCHAPS and lipid at 8 mg/ml is then diluted to 0.53 mg/ml lipid with a pre-warmed solution of Hepes and sodium chloride. This final solution containing Hepes buffer, sodium chloride, BigCHAPS detergent and lipid is used to create working solutions of both gamma-secretase (25 Units) and the MBP-C125 substrate (0.05 mg/ml).
# Gamma-secretase was then added to a 96-well micro-titre plate and then incubated with various concentrations of inhibitor for 30 minutes at 37° C. MBPC125 substrate was then added to initiate the reaction that would run for two hours at 37° C. The reaction was quenched with the addition of SDS to a final concentration of 0.1% and then 100 μl of the reaction mixture was transferred to a capture ELISA plate and incubated overnight at 4° C. Detection of the cleavage product was performed using a standard sandwich ELISA assay and quantified using a six point standard curve.
row,IC50 [nM],Structure (SMILES)
1,< 50,"CC[C@@H]1c2c[nH]nc2C[C@H](c2ccc(Cl)cc2)N1S(=O)(=O)c1ccc(Cl)cc1 [(4R,6R)-6-(4-chlorophenyl)-5-(4-chlorophenylsulfonyl)-4-ethyl-4,5,6,7-tetrahydro-1H-pyrazolo[4,3-c]pyridine]"
2,< 50,"CC[C@H]1Cc2n[nH]cc2[C@@H](CC)N1S(=O)(=O)c1ccc(F)cc1 [(4R,6S)-4,6-diethyl-5-(4-fluorophenylsulfonyl)-4,5,6,7-tetrahydro-2H-pyrazolo[4,3-c]pyridine]"
3,50 to 150,"CC[C@H]1Cc2[nH]ncc2[C@@H](CC)N1S(=O)(=O)c1ccccn1 [(4R,6S)-4,6-diethyl-5-(pyridin-2-ylsulfonyl)-4,5,6,7-tetrahydro-1H-pyrazolo[4,3-c]pyridine]"
4,< 50,"CC[C@H]1Cc2n[nH]cc2[C@@H](c2ccc(Cl)cc2)N1S(=O)(=O)c1ccc(Cl)cc1 [(4R,6S)-4-(4-chlorophenyl)-5-(4-chlorophenylsulfonyl)-6-ethyl-4,5,6,7-tetrahydro-1H-pyrazolo[4,3-c]pyridine]"
5,< 50,"CC[C@H]1Cc2n[nH]cc2[C@@H](CC)N1S(=O)(=O)c1ccc(Cl)cc1 [(4R,6S)-5-(4-chlorophenylsulfonyl)-4,6-diethyl-4,5,6,7-tetrahydro-1H-pyrazolo[4,3-c]pyridine]"
6,< 50,"CC[C@@H]1c2cn[nH]c2C(=O)[C@H](CC)N1S(=O)(=O)c1ccc(Cl)cc1 [(4R,6S)-5-(4-chlorophenylsulfonyl)-4,6-diethyl-5,6-dihydro-1H-pyrazolo[4,3-c]pyridin-7(4H)-one]"
7,< 50,"C[C@@H]1c2cn[nH]c2C[C@H](C)N1S(=O)(=O)c1ccc(Cl)cc1 [(4R,6S)-5-(4-chlorophenylsulfonyl)-4,6-dimethyl-4,5,6,7-tetrahydro-1H-pyrazolo[4,3-c]pyridine]"
8,50 to 150,"CC[C@@H]1c2cn[nH]c2/C(=N\O)[C@H](CC)N1S(=O)(=O)c1ccc(Cl)cc1 [(4R,6S,Z)-5-(4-chlorophenylsulfonyl)-4,6-diethyl-5,6-dihydro-1H-pyrazolo[4,3-c]pyridin-7(4H)-one oxime]"
9,50 to 150,"CC[C@@H]1Cc2[nH]ncc2[C@H](CC)N1S(=O)(=O)c1ccc(Cl)cc1 [(4S,6R)-5-(4-chlorophenylsulfonyl)-4,6-diethyl-4,5,6,7-tetrahydro-1H-pyrazolo[4,3-c]pyridine]"
10,150 to 300,"CC[C@@H]1C(=O)c2[nH]ncc2[C@H](CC)N1S(=O)(=O)c1ccc(Cl)cc1 [(4S,6R)-5-(4-chlorophenylsulfonyl)-4,6-diethyl-5,6-dihydro-1H-pyrazolo[4,3-c]pyridin-7(4H)-one]"
11,< 50,"C[C@H]1Cc2[nH]ncc2[C@H](C)N1S(=O)(=O)c1ccc(Cl)cc1 [(4S,6S)-5-(4-chlorophenylsulfonyl)-4,6-dimethyl-4,5,6,7-tetrahydro-1H-pyrazolo[4,3-c]pyridine]"
12,150 to 300,"O=S(=O)(c1ccc(Cl)cc1)N1Cc2cn[nH]c2CC1CO (stereo not drawn) [(5-(4-chlorophenylsulfonyl)-4,5,6,7-tetrahydro-1H-pyrazolo[4,3-c]pyridin-6-yl)methanol]"
13,150 to 300,"CC[C@@H]1c2cn[nH]c2C[C@@H](COC(=O)N(C)C)N1S(=O)(=O)c1ccc(Cl)cc1 [((4R,6S)-5-(4-chlorophenylsulfonyl)-4-ethyl-4,5,6,7-tetrahydro-1H-pyrazolo[4,3-c]pyridin-6-yl)methyl dimethylcarbamate]"
14,150 to 300,"O=S(=O)(c1ccc(Cl)cc1)N1[C@@H](CO)Cc2[nH]ncc2[C@H]1CO [((4S,6R)-5-(4-chlorophenylsulfonyl)-4,5,6,7-tetrahydro-1H-pyrazolo[4,3-c]pyridine-4,6-diyl)dimethanol]"
15,150 to 300,"CC[C@@H]1Cc2[nH]ncc2[C@@H](COC(=O)N(C)C)N1S(=O)(=O)c1ccc(Cl)cc1 [((4S,6R)-5-(4-chlorophenylsulfonyl)-6-ethyl-4,5,6,7-tetrahydro-1H-pyrazolo[4,3-c]pyridin-4-yl)methyl dimethylcarbamate]"
